The target of one assay is T1, Tyrosinase (Agaricus bisporus, UniProt O42713).
T1 sequence (O42713 whole entry): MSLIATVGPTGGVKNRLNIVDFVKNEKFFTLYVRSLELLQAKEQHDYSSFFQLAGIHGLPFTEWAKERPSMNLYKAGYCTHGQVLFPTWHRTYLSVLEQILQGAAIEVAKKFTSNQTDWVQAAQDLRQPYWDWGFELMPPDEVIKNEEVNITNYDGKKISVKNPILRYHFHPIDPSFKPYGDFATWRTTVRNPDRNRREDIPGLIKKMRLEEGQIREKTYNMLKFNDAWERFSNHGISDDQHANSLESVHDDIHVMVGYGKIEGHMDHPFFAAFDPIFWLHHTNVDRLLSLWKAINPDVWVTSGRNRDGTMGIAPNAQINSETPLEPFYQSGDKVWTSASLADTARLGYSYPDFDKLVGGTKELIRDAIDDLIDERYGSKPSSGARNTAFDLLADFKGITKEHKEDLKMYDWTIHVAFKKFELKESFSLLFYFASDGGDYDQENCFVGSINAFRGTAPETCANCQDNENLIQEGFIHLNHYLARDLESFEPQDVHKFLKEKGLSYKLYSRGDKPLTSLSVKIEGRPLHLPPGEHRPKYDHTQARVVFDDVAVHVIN
The experiment in a line: Inhibition of mushroom tyrosinase using L-DOPA as substrate preincubated for 10 mins followed by substrate addition measured after 20 mins.

Assay [1] deals with Prostaglandin G/H synthase 1 (Homo sapiens, UniProt P23219). Briefly: Inhibition of human COX1 using [14C]arachidonic acid as substrate preincubated for 5 mins followed by substrate addition measured after 2 mins by TLC.
Chain of Prostaglandin G/H synthase 1 (P23219 whole entry): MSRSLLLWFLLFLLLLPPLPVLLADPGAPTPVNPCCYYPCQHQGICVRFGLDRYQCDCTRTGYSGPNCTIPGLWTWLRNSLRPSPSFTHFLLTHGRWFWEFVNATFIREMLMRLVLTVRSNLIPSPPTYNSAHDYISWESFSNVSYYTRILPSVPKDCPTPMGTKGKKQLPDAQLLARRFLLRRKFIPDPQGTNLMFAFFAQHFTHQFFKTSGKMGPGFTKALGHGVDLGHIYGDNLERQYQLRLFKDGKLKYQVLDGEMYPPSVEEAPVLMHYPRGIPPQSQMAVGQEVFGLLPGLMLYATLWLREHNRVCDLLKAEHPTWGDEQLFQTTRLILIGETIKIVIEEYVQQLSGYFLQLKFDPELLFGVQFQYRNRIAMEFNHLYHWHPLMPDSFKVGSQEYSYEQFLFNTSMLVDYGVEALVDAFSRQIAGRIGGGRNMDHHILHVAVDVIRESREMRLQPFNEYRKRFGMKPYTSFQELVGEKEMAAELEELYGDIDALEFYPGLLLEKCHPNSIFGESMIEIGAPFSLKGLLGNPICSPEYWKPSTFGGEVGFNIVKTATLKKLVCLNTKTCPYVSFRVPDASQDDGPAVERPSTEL
Assay [2] deals with Rattus norvegicus. The experiment in a line: Antiinflammatory activity in albino rat assessed as inhibition of carrageenan-induced paw edema at 10 umol/kg, sc pretreated for 1 hr followed by carrageenan challenge measured after 4 hrs by plethysmographic method relative to control. The assay is classed as functional. A general note: Carrageenan injected into the paw causes an acute inflammation.

The target of assay [3] is Lipoxygenase (Glycine max) (UniProt Q39829). Briefly: Potency index, ratio of NDGA IC50 to compound IC50 for soybean lipoxygenase.
Another assay addresses Lipoxygenase (Glycine max, UniProt Q39829).
Assay [4] relates to Rattus norvegicus. Briefly: Antiinflammatory activity in Wistar rat assessed as inhibition of formalin-induced paw oedema at 20 mg/kg, po equiv of indomethacin pretreated for 1 hr followed by formalin addition measured up to 6 hrs post dose by plethysmographic method relative to control. Format: functional.
For assay [5], the target named is Aldo-keto reductase family 1 member B1 (Bos taurus) (UniProt P16116). The experiment in a line: Potency index, ratio of valproic acid IC50 to compound IC50 for bovine kidney ALR1.
A further assay is filed under the species Homo sapiens. Briefly: Selectivity ratio of IC50 for human COX1 to IC50 for human COX2.
Assay [6] is described as follows: Non-competitive inhibition of baker's yeast alpha-glucosidase using pNPG as substrate preincubated for 10 mins followed by substrate addition measured after 30 mins by Lineweaver-Burk plot analysis. Also noted: species or system Saccharomyces cerevisiae.
In another assay the test system is Saccharomyces cerevisiae. Briefly: Potency index, ratio of acarbose IC50 to compound IC50 for Saccharomyces cerevisiae alpha-glucosidase.
Assay [7] deals with Cholinesterase (Equus caballus) (UniProt P81908). The experiment in a line: Potency index, ratio of galanthamine IC50 to compound IC50 for equine serum BChE.
Chain of Cholinesterase (Equus caballus) (P81908 whole entry): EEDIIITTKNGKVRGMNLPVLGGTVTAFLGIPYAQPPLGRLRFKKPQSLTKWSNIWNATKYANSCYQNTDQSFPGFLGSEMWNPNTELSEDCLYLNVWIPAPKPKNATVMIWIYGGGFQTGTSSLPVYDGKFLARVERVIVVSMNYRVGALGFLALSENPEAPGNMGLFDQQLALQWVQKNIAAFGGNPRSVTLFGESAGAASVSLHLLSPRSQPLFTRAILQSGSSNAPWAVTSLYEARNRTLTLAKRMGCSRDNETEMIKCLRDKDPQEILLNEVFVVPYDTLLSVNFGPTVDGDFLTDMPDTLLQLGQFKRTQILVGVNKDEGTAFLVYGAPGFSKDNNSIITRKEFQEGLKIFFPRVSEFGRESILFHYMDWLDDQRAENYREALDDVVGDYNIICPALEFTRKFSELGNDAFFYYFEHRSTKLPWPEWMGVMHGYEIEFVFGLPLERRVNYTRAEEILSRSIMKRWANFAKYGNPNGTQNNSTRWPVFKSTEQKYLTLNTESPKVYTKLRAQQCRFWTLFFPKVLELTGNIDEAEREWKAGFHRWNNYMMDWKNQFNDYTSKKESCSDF
Assay [8] concerns the target Cholinesterase (Equus caballus, UniProt P81908). Briefly: Inhibition of equine serum BChE using butyrylthiocholine iodide as substrate preincubated for 15 mins followed by substrate addition by Ellman's method.
The target in assay [9] is Aldo-keto reductase family 1 member B1 (Bos taurus, UniProt P16116). Briefly: Inhibition of calf lens ALR2 using D,L-glyceraldehyde as substrate preincubated for 5 mins followed by NADPH addition measured after 10 mins by UV spectrophotometric method.
In assay [10] the target is Intestinal-type alkaline phosphatase (Bos taurus, UniProt P19111).
Chain of Intestinal-type alkaline phosphatase (P19111 whole entry): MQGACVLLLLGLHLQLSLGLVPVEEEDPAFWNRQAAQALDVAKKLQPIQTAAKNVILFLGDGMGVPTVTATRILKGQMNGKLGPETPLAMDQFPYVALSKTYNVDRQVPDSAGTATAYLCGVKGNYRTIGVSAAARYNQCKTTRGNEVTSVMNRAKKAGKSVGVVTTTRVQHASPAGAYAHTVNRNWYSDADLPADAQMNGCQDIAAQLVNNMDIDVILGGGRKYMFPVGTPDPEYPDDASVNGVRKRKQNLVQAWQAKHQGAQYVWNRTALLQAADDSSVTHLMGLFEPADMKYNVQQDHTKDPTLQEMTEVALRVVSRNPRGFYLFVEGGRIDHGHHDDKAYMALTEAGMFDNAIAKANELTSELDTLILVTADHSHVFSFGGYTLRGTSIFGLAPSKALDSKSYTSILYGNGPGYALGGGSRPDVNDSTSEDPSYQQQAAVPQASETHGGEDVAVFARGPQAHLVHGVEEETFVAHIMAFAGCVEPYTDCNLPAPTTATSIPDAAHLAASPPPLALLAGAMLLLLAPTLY
Description: Inhibition of calf intestinal alkaline phosphatase using pNPP as substrate preincubated for 10 mins followed by substrate addition measured after 30 mins
The target of assay [11] is Cholinesterase (Homo sapiens, UniProt P06276). The experiment in a line: Inhibition of human plasmatic BuChE using butylthiocholine as substrate preincubated for 5 mins followed by substrate addition measured at 1 min time interval by Ellman's method.
Chain of Cholinesterase (Homo sapiens, UniProt P06276) (P06276 whole entry): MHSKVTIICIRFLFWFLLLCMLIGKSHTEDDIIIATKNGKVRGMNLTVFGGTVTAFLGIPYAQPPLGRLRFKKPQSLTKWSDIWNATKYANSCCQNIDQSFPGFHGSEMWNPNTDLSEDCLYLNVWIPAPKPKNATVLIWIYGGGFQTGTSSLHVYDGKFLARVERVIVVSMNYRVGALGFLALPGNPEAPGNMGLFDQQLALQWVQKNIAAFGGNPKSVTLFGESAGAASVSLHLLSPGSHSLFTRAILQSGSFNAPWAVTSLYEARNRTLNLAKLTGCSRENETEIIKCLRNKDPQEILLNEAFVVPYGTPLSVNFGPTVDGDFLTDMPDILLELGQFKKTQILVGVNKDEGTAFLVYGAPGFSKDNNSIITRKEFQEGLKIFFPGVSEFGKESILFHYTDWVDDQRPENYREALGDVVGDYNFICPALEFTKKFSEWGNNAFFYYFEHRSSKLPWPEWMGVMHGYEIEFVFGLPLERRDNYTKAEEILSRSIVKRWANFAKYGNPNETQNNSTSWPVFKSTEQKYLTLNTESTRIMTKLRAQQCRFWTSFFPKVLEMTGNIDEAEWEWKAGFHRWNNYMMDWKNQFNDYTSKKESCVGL
The target in assay [12] is T2, Acetylcholinesterase (Homo sapiens, UniProt P22303). Briefly: Potency index, ratio of 7-MEOTA IC50 to compound IC50 for human erythrocyte AChE.
T2 sequence (P22303 whole entry): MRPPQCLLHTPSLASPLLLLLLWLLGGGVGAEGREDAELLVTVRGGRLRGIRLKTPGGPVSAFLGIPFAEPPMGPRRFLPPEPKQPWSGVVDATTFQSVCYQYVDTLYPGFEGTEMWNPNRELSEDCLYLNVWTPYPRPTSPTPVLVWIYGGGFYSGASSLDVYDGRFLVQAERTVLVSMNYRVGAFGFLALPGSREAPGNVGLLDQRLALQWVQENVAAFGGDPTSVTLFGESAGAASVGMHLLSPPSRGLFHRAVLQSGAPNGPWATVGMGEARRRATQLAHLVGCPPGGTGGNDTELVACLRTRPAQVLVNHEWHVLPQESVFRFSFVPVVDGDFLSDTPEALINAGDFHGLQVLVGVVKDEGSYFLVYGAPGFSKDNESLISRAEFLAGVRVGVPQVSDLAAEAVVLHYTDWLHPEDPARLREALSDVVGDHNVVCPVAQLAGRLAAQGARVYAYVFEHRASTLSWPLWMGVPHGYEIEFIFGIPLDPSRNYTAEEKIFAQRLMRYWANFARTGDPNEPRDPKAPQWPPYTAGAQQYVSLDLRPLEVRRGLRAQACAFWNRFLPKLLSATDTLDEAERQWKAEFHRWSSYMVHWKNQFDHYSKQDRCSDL
In assay [13] the target is T2, Acetylcholinesterase.
The species entered for a further assay is Bos taurus. The experiment in a line: Selectivity index, ratio of IC50 for bovine kidney ALR1 to IC50 for calf lens ALR2.
For assay [14], the target named is Aldo-keto reductase family 1 member B1 (Bos taurus) (UniProt P16116). The experiment in a line: Potency index, ratio of sulindac IC50 to compound IC50 for calf lens ALR2.

pIC50, pKi: −log10 of the molar value.

Chain of Cholinesterase (Equus caballus, UniProt P81908) (P81908 whole entry): as the sequence (P81908 whole entry) above

As usually defined, the pIC50 is the IC50 on a negative log10 scale, so that one unit is a factor of ten. Low values mean a high IC50, high ones a low IC50. `COc1cc(C2CC(c3cc4ccccc4oc3=O)=NN2c2nc(-c3ccc(Br)cc3)cs2)ccc1OCc1ccccc1` (configuration not stated) had a pIC50 against Tyrosinase of 8.34. For orientation: inhibition in vivo means the share of the control response that was lost under treatment. For the molecule `CCN1C(C)=CC/C1=N/N=C(\C)c1cc2ccccc2oc1=O`, the pIC50 in assay [1] was 3.78 to 4.25. In the assay with Rattus norvegicus [2], the inhibition in vivo at 10 µmol/kg was 88.9%. For `C/C(=N\N=C1\CCC(=O)N1C)c1cc2ccccc2oc1=O` the same measures were 3.78 to 4.25 and 71.9%. For `CCOC(=O)C1=C(C)N(CC)/C(=N\N=C(/C)c2cc3ccccc3oc2=O)C1`, in that order: 3.78 to 4.25 and 94.5%.

Turning to `O=c1oc2ccccc2c(O)c1/C=C/n1cnc2c(N3CCCCC3)ncnc21`, in assay [3], the Ratio IC50 was 4. Also, the pIC50 against Lipoxygenase is 5.20.

In the case of `O=c1oc2cc(Cl)ccc2cc1-c1nc2ccccc2[nH]1`, the inhibition in vivo at 20 mg/kg with Rattus norvegicus [4] came out at 47%. Consider `CC1=CC/C(=N/N=C(\C)c2cc3ccccc3oc2=O)N1C`, for which the pIC50 in assay [1] is 3.78 to 4.25. Also, the inhibition in vivo at 10 µmol/kg in the assay on Rattus norvegicus [2] turned out to be 90%. Turning to `CCCCNCn1nc(-c2cc3ccccc3oc2=O)oc1=S`, in assay [5], the Ratio IC50 was 17.

Consider `C/C(=N\N=C1\CC(C)C(=O)N1C)c1cc2ccccc2oc1=O` (configuration not stated), for which the Ratio IC50 in the assay filed under Homo sapiens is 223. In addition, the pIC50 in assay [1] was 3.78 to 4.25. Also, the inhibition in vivo at 10 µmol/kg with Rattus norvegicus [2] is 92.2%. As a reminder, the pKi is the negative decadic logarithm of the Ki, by convention in mol/L. High values mean a low Ki, low ones a high Ki. For the molecule `O=C(N/N=C/c1cc(Cl)cc(Cl)c1O)c1nc(-c2cc3ccccc3oc2=O)cs1`, the pKi in assay [6] is 5.16.

At Lipoxygenase, `O=c1oc2ccccc2c(O)c1/C=C/n1cnc2c(NCc3ccccc3)ncnc21` had a pIC50 of 4.70. On to `O=C(Cn1c(Cc2ccc(Cl)c(Cl)c2)nc2ccccc2c1=O)NNC(=O)c1cc2ccccc2oc1=O`, for which, in the assay on Saccharomyces cerevisiae, the Ratio IC50 fell in the range of 4 to 5. Turning to `C/C(=N\Nc1nc(-c2cc3ccccc3oc2=O)cs1)c1ccc(Cl)cc1N`, in assay [5], the Ratio IC50 came to 125. In the case of `O=C(Nc1ccc(F)cc1)Nc1nc(-c2cc3cc([N+](=O)[O-])ccc3oc2=O)cs1`, the Ratio IC50 in assay [7] is 4. The molecule also gave a pIC50 against Cholinesterase [8] of 5.31. Consider `O=c1oc2ccccc2cc1-c1nn(CNc2ccccc2Cl)c(=S)o1`, for which, in assay [9], the pIC50 was 6.51.

As for `Cc1ccc(-n2c(-c3cc4ccccc4oc3=O)cs/c2=N/NC(=O)c2cc3ccccc3oc2=O)c(C)c1`, the pIC50 in assay [10] is 5.86. Consider `O=C(Cn1c(Cc2ccc(Br)cc2)nc2ccccc2c1=O)NNC(=O)c1cc2ccccc2oc1=O`, for which the Ratio IC50 in the assay on Saccharomyces cerevisiae lay within 4 to 5. For `O=C(Cc1cc(=O)oc2cc(O)ccc12)NCCCCCCCNC(=O)c1cccc2c(=O)c3ccccc3[nH]c12`, the pIC50 on Cholinesterase [11] was 4.49; against Acetylcholinesterase [13] it was 5.23. Also, on Acetylcholinesterase [12], the Ratio IC50 was determined as 3. As for `C/C(=N\Nc1nc(-c2cc3ccccc3oc2=O)cs1)c1ccc(Br)cc1`, the pIC50 in assay [9] is 6.96. Also, the Ratio IC50 was 9.17 in the assay listed under Bos taurus and 3 in [14]. As to `O=c1oc2ccccc2cc1-c1nn(CN2CCOCC2)c(=S)o1`, the pIC50 in assay [9] was 6.47.

Values taken from ChEMBL document CHEMBL4118289, “Developing hybrid molecule therapeutics for diverse enzyme inhibitory action: Active role of coumarin-based structural leads in drug discovery” (Bioorg Med Chem, 2018).
